Measurements taken from ChEMBL document CHEMBL1151555, “Total synthesis of an optically active 8-carba-physostigmine analog: a potent acetylcholinesterase inhibitor” (Bioorg Med Chem Lett, 1991).
pIC50: −log10 of the molar value.

Biological target: Acetylcholinesterase (Homo sapiens, UniProt P22303)
Test: Concentration required to inhibit acetylcholinesterase isolated from human erythrocytes

Acetylcholinesterase, sequence (P22303 whole entry): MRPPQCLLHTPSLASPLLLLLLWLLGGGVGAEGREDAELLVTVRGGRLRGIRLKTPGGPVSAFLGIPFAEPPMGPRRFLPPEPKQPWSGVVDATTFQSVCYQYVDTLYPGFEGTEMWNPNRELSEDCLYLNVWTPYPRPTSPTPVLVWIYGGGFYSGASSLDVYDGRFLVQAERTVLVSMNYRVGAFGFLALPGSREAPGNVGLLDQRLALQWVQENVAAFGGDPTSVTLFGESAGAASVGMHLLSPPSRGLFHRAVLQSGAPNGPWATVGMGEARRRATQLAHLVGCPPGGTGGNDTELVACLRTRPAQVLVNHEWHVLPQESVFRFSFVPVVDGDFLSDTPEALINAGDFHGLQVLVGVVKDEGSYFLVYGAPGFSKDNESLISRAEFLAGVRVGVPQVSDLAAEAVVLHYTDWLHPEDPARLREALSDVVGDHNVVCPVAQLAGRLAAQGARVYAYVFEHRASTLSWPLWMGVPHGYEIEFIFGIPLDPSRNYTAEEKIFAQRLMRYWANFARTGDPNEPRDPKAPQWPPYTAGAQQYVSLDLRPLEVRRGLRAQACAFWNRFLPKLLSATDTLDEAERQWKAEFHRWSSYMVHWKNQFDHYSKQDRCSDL

Row | Structure (SMILES) | pIC50
1 | CCCCCCNC(=O)Oc1ccc2c(c1)[C@@]1(C)CCN(CC)[C@H]1C2 | 6.63
2 | CCCCCCNC(=O)Oc1ccc2c(c1)[C@]1(C)CCN(CC)[C@@H]1C2 | 7.70
